Measured values taken from US9670197B2, “Small molecule modifiers of the Hec1-Nek2 interaction in G2/M” (The Regents of the University of California, priority 2013, dated 2017).

How the values were obtained:
[1] = test system: MDA-MB-231; experiment: Cancer cell growth inhibition, MDA-MB-231; format: cell-based; conditions: Homo sapiens, Table 2, Breast adenocarcinoma, read-out: cancer cell growth suppression
Method: (§1) Cell lines and establishment of stable cell lines. Human breast cancer cell lines MDA-MB-231 and MDA-MB-468, osteosarcoma line U20S, cervical adenocarcinoma line HeLa, and normal skin fibroblast Hs27 were maintained in DMEM medium (Invitrogen, Grand Island, N.Y.) supplemented 10% fetal bovine serum (FBS) and 1% penicillin-streptomycin. The leukemia cell line K562 and glioblastoma cell line T98G were grown in RPMI 1640 supplemented 10% FBS and 1% penicillin-streptomycin. Normal mammary gland epithelial cell line MCF10A was cultured in DMEM/F12 (50:50) plus 5% horse serum, 0.1 μg/mL cholera toxin, 10 μg/mL insulin, 0.5 μg/mL hydrocortisone, and 20 ng/mL epidermal growth factor. To establish MDA-MB-468 cells that stably expressed each individual GFP-Hec1 deletion construct described above, cells were infected with retrovirus expressing GFP-Hec1 WT, GFP-Hec1 W395A and GFP-Hec1 WLK/AAA, and were selected with 2 μg/ml puromycin.

[2] = test system: cancer cell lines; experiment: Cancer cell growth inhibition; format: cell-based
[3] = test system: U2OS; experiment: Cancer cell growth inhibition, U2OS osteosarcoma; format: cell-based; conditions: Homo sapiens, Table 2, Osteosarcoma, read-out: cancer cell growth suppression
Method: as §1

[4] = test system: cyclin B1; experiment: Cyclin B1 level in treated HeLa cells, western blot; format: cell-based; conditions: dose series
Method: (§2) INH-induced Nek2 degradation; INH-inhibition of Hec1 phosphorylation by Nek2. […] To evaluate whether INH treatment affected cell cycle profile or Nek2 mRNA level, we performed FACS and real-time PCR analysis.
(§3) Protein extraction and western blot analysis. The protein extractions and western blot analyses of Examples 4-6 were conducted as follows. Cell extracts were prepared and equal amounts of protein were separated by SDS-PAGE (10% w/v gel) followed by electrophoretic transfer to PVDF membranes (Millipore, Billerica, Mass.). After blocking with 5% w/v powdered non-fat milk, the membrane was incubated with different antibodies for overnight at 4° C. and treated for 1 hr with horseradish peroxidase-conjugated goat anti-mouse IgG and goat anti-rabbit IgG antibodies (GeneTex, Irvine, Calif.). ECL detection of the horseradish peroxidase reaction was performed according to the manufacturer's instructions (Millipore, Billerica, Mass.). Protein signal was measured on a LAS 4000 mini Imaging System (Fujifilm, Valhalla, N.Y.).

[5] = biological target: T1, Hec1 (Homo sapiens, UniProt O14777); experiment: Hec1 protein level in treated HeLa cells, western blot; format: cell-based; conditions: 1 μM, time course
T1 construct: expressed in transfected cells; host or cells: HeLa cells (extracts)
T1 sequence (O14777 1-642): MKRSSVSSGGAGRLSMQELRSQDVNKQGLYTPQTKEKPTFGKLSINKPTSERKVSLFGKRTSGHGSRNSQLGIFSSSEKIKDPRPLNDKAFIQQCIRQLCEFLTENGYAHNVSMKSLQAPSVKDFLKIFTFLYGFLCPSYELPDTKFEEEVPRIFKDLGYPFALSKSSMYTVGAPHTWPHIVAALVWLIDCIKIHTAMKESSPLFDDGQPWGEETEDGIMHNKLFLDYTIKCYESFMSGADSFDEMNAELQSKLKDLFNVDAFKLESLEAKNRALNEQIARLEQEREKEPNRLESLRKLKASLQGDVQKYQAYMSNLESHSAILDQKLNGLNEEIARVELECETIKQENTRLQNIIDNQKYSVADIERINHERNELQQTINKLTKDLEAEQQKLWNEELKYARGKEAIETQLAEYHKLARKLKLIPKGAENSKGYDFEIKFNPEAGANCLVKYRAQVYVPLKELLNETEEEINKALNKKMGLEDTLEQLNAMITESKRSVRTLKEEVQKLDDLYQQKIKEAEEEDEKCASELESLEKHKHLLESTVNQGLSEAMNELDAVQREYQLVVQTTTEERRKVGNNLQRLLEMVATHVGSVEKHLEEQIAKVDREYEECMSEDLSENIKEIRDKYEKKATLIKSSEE
Method: as §2, §3

[6] = test system: PLK1; experiment: PLK1 expression in treated HeLa cells, western blot; format: cell-based; conditions: dose series
Method: as §2, §3

[7] = test system: Nek2; experiment: Nek2 protein level in treated HeLa cells, western blot; format: cell-based; conditions: dose series
Method: as §2, §3

[8] = biological target: T2, Nek2 (Homo sapiens, UniProt P51955); experiment: Biotin-conjugated INH pull-down, Nek2; format: binding
T2 construct: endogenous in cells; host or cells: HeLa
T2 sequence (P51955 1-445): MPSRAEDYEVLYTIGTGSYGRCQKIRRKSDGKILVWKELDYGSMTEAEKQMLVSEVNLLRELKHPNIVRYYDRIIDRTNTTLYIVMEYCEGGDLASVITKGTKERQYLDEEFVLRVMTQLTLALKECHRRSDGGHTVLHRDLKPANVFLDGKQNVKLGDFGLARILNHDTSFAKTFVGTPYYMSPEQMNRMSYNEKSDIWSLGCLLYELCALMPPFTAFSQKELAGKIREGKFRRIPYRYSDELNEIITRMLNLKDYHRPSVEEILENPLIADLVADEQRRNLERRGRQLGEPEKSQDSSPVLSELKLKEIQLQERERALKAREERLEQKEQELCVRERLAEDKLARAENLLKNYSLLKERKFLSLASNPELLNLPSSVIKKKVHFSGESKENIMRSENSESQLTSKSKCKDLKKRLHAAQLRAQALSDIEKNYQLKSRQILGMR

[9] = test system: MCF10A; experiment: Growth inhibition, normal mammary epithelial MCF10A; format: cell-based; conditions: for IC50: Homo sapiens, MCF-10A, Table 2, Epithelial, MCF10A, read-out: cell growth suppression; for growth inhibitory effect on non-tumorgenic epithelial cells: data not shown
Method: as §1

[10] = test system: pS165 Hec1; experiment: Phosphorylated Hec1 (pS165 Hec1) level in treated HeLa cells; format: cell-based; conditions: 1 μM, 4 to 24 hours
Method: as §3
The following antibodies were used in the experiments described in Examples 4-6. Mouse anti-Hec1 clone 9G3, mouse anti-Nek2, mouse anti-myc, mouse anti-PLK1, mouse anti-p84, mouse anti-GAPDH, rabbit anti-Aurora A and rabbit anti-cyclin B1 antibodies (GeneTex, Irvine, Calif.), mouse anti-GFP (Roche, Indianapolis, Ind.), human anti-ACA (Antibodies Inc., Davis, Calif.), mouse anti-alpha-tubulin, rabbit anti-gamma tubulin (Sigma-Aldrich, St. Louis, Mo.), and secondary antibodies conjugated with Alexa dyes (Invitrogen, Grand Island, N.Y.). […]

[11] = test system: T98G; experiment: Cancer cell growth inhibition, T98G glioblastoma; format: cell-based; conditions: Homo sapiens, Table 2, Glioblastoma, read-out: cancer cell growth suppression
Method: as §1

Compound | IC50 [1] | inhibition of cancer cell growth, IC50 (in words) [2] | IC50 [3] | change in cyclin B1 [4] | change in Hec1 protein level [5] | expression of PLK1 [6] | Nek2 degradation, dose dependence [7] | interaction with Nek2 in pull-down [8] | IC50 [9] | growth inhibitory effect on non-tumorgenic epithelial cells [9] | phosphorylated Hec1 levels (pS165 Hec1) [10] | IC50 [11]
Cc1cc(C)c(-c2csc(C(=O)c3ccncc3)n2)c(C)c1 [INH41, (4-mesitylthiazol-2-yl)(pyridin-4-yl)methanone] | 400 nM | sub-micromolar IC50 | 630 nM | no significant change | little change | not affected | degraded in a dose-dependent manner | Nek2 does not interact | 58 µM | Neither INH41 nor INH154 had significant growth inhibitory effects | notably reduced in a time-dependent fashion | 860 nM
Cc1cc(N2CCCCC2)cc(C)c1-c1csc(NC(=O)c2ccncc2)n1 [INH154, N-(4-(2,6-Dimethyl-4-(piperidin-1-yl)phenyl)thiazol-2-yl)isonicotinamide] | 140 nM | sub-micromolar IC50 | 110 nM | no significant change | little change | not affected | degraded in a dose-dependent manner | Nek2 does not interact | 36 µM | Neither INH41 nor INH154 had significant growth inhibitory effects | notably reduced in a time-dependent fashion | 140 nM
